Experimental data taken from patent US11986471B2, “Compounds and methods of use” (Tango Therapeutics, Inc., priority 2018, dated 2024).

How the values were obtained:
[1] = biological target: T1, PRMT5 (Homo sapiens, UniProt O14744); experiment: PRMT5 IC50 assay in the presence of SAM as cofactor; type: biochemical
T1 construct: purchased Viva (custom protein)
Outline: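 Ki conversion: SAM arm, Ki=IC50/1.5; MTA arm, Ki=IC50/13.5. No-cofactor arm reported as IC50 only. Selectivity expressed as Ki(SAM)/Ki(MTA).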

[2] = biological target: T1, PRMT5; experiment: PRMT5 IC50 assay with no cofactor; type: biochemical
Outline: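 IC50 values were measured against human PRMT5 with SAM, with MTA, or with no cofactor. Ki was derived from IC50 as Ki=IC50/1.5 with SAM and Ki=IC50/13.5 with MTA, and the Ki(SAM)/Ki(MTA) ratio was then taken.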

[3] = biological target: T1, PRMT5; experiment: PRMT5 IC50 assay in the presence of MTA as cofactor; type: biochemical; settings: for IC50: PRMT5, MTA as cofactor
Outline: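 For the SAM-containing format, dividing IC50 by 1.5 yields Ki; for the MTA-containing format the divisor is 13.5. A third format without cofactor gives IC50 alone.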

[4] = tested on: HAP1 MTAP-intact; experiment: SDMA in-cell western assay, HAP1 MTAP-intact cell line; type: cell-based; settings: Homo sapiens
Outline: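 Potency reflects cellular SDMA reduction, detected by in-cell western, in HAP1 cells with or without MTAP (endogenous expression versus null).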

[5] = tested on: HAP1 MTAP-deleted; experiment: SDMA in-cell western assay, HAP1 MTAP-deleted cell line; type: cell-based; settings: for IC50: Homo sapiens, HAP1 MTAP-deleted cell line; for MTAP Intact/Deleted Ratio: IC50 ratio HAP1 MTAP-intact / HAP1 MTAP-deleted
Outline: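 These are IC50 values from an in-cell western measuring SDMA. The HAP1 cells used carry no MTAP, in contrast to the isogenic partner line with endogenous MTAP expression.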

[6] = ratio between Ki in the presence of SAM and Ki in the presence of MTA
[7] = ratio between the Ki in the presence of SAM and the Ki in the presence of MTA

T1 sequence (O14744 whole entry): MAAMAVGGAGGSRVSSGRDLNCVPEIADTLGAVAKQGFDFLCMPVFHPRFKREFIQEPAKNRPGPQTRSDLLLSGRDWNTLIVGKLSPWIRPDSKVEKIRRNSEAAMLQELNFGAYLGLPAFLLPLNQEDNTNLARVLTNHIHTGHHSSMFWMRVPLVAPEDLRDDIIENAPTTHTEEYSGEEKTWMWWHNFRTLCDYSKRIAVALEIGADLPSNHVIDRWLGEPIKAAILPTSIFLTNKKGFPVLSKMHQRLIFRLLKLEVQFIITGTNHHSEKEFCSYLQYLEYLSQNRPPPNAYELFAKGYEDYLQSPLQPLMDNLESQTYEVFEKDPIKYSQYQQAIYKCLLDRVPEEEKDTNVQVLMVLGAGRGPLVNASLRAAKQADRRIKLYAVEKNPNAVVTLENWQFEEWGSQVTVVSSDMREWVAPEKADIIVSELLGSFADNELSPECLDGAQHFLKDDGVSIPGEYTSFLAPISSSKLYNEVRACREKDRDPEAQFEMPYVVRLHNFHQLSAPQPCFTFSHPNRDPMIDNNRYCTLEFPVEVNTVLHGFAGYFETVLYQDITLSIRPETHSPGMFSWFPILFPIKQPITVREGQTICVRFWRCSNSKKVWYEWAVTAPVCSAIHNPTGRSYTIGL
T1 sequence (Q9BQA1 whole entry partner): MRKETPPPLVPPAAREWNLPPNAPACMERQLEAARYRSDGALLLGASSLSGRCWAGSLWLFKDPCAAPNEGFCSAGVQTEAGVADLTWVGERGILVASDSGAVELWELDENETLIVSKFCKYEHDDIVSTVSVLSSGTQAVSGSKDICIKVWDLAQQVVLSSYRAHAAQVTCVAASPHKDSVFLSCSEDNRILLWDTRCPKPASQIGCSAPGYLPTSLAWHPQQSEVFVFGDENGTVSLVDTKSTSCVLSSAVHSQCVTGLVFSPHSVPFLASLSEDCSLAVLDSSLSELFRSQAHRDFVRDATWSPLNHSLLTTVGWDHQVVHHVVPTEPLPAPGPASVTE

Structure (SMILES) | IC50 [1] | IC50 ([2]; read-out: No Co-factor IC50) | IC50 [3] | SAM/MTA Ratio [3, 6] | IC50 [4] | IC50 [5] | MTAP Intact/Deleted Ratio [5] | IC50 [2] | SAM/MTA Ratio [3, 7]
CCCN(C)c1nc(NC2COC2)cc(C(=O)NC[C@H](O)CN2CCc3cc(OCc4ocnc4C)ccc3C2)n1 [Compound 390, N-[(2S)-2-hydroxy-3-{6-[(4-methyl-1,3-oxazol-5-yl)methoxy]-1,2,3,4-tetrahydroisoquinolin-2-yl}propyl]-2-[methyl(propyl)amino]-6-[(oxetan-3-yl)amino]pyrimidine-4-carboxamide] | 50 to 500 nM | 500 to 5000 nM | 50 to 500 nM | A (a Ki ratio greater than or equal to 10 fold between the Ki in the presence of SAM and the Ki in the presence of MTA) | < 1000 nM | < 1000 nM | C* (an IC50 ratio of less than 3 fold between the IC50 in the HAP1 MTAP-intact cell line and the HAP1 MTAP-deleted cell line) |  | 
O=C(NC[C@H](O)CN1CCc2c(ccc(OCc3cnco3)c2Cl)C1)c1ccnc(NC2CCC(F)(F)C2)c1 (stereo partly drawn) [Compound 316, N—((S)-3-(5-chloro-6-(oxazol-5-ylmethoxy)-3,4-dihydroisoquinolin-2(1H)-yl)-2-hydroxypropyl)-2-((3,3-difluorocyclopentyl)amino)isonicotinamide] | 50 to 500 nM | ≥ 5000 nM | 50 to 500 nM | A (a Ki ratio greater than or equal to 10 fold between the Ki in the presence of SAM and the Ki in the presence of MTA) | ≥ 10000 nM | ≥ 10000 nM | C* (an IC50 ratio of less than 3 fold between the IC50 in the HAP1 MTAP-intact cell line and the HAP1 MTAP-deleted cell line) |  | 
Cc1ncoc1COc1ccc2c(c1)CCN(C[C@@H](O)CNC(=O)c1cc(NC3CCCC3)ncn1)C2 [Compound 333, 6-(cyclopentylamino)-N-[(2S)-2-hydroxy-3-{6-[(4-methyl-1,3-oxazol-5-yl)methoxy]-1,2,3,4-tetrahydroisoquinolin-2-yl}propyl]pyrimidine-4-carboxamide] | 50 to 500 nM | ≥ 5000 nM | 50 to 500 nM | A (a Ki ratio greater than or equal to 10 fold between the Ki in the presence of SAM and the Ki in the presence of MTA) | < 1000 nM | < 1000 nM | C* (an IC50 ratio of less than 3 fold between the IC50 in the HAP1 MTAP-intact cell line and the HAP1 MTAP-deleted cell line) |  | 
Cc1c(OCc2cnco2)ccc2c1CCN(C[C@@H](O)CNC(=O)c1ccnc(NC3CN(C(=O)C4CC4)C3)c1)C2 [Compound 588, (S)-2-((1-(cyclopropanecarbonyl)azetidin-3-yl)amino)-N-(2-hydroxy-3-(5-methyl-6-(oxazol-5-ylmethoxy)-3,4-dihydroisoquinolin-2(1H)-yl)propyl)isonicotinamide] | 50 to 500 nM |  | 50 to 500 nM |  | ≥ 10000 nM | 1000 to 10000 nM | C* (an IC50 ratio of less than 3 fold between the IC50 in the HAP1 MTAP-intact cell line and the HAP1 MTAP-deleted cell line) | 500 to 5000 nM | A (a Ki ratio greater than or equal to 10 fold between the Ki in the presence of SAM and the Ki in the presence of MTA)
CC(=O)N1CCC(Nc2cc(C(=O)NC[C@H](O)CN3CCc4cc(OCc5cnnn5C)ccc4C3)ncn2)CC1 [Compound 250, (S)-6-((1-acetylpiperidin-4-yl)amino)-N-(2-hydroxy-3-(6-((1-methyl-1H-1,2,3-triazol-5-yl)methoxy)-3,4-dihydroisoquinolin-2(1H)-yl)propyl)pyrimidine-4-carboxamide] | 500 to 5000 nM | ≥ 5000 nM | 500 to 5000 nM | A (a Ki ratio greater than or equal to 10 fold between the Ki in the presence of SAM and the Ki in the presence of MTA) | ≥ 10000 nM | ≥ 10000 nM | C* (an IC50 ratio of less than 3 fold between the IC50 in the HAP1 MTAP-intact cell line and the HAP1 MTAP-deleted cell line) |  | 
CC(C)(C)C(=O)N1CCC(Nc2cc(C(=O)NC[C@H](O)CN3CCc4c(ccc(OCc5cnco5)c4Cl)C3)ccn2)CC1 [Compound 432, (S)—N-(3-(5-chloro-6-(oxazol-5-ylmethoxy)-3,4-dihydroisoquinolin-2(1H)-yl)-2-hydroxypropyl)-2-((1-pivaloylpiperidin-4-yl)amino)isonicotinamide] | 50 to 500 nM |  | 50 to 500 nM |  | ≥ 10000 nM | 1000 to 10000 nM | B* (an IC50 ratio greater than or equal to 3 fold but lower than 10 fold between the IC50 in the HAP1 MTAP-intact cell line and the HAP1 MTAP-deleted cell line) | 500 to 5000 nM | A (a Ki ratio greater than or equal to 10 fold between the Ki in the presence of SAM and the Ki in the presence of MTA)
CC(=O)N1CCN(c2nc(NC3COC3)cc(C(=O)NC[C@H](O)CN3CCc4cc(OCc5ocnc5C)ccc4C3)n2)CC1 [Compound 401, 2-(4-acetylpiperazin-1-yl)-N-[(2S)-2-hydroxy-3-{6-[(4-methyl-E3-oxazol-5-yl)methoxy]-1,2,3,4-tetrahydroisoquinolin-2-yl}propyl]-6-[(oxetan-3-yl)amino]pyrimidine-4-carboxamide] | 50 to 500 nM | 500 to 5000 nM | 50 to 500 nM | A (a Ki ratio greater than or equal to 10 fold between the Ki in the presence of SAM and the Ki in the presence of MTA) | ≥ 10000 nM | 1000 to 10000 nM | B* (an IC50 ratio greater than or equal to 3 fold but lower than 10 fold between the IC50 in the HAP1 MTAP-intact cell line and the HAP1 MTAP-deleted cell line) |  | 
O=C(NC[C@H](O)CN1CCc2c(ccc(OCc3cn[nH]c3)c2Cl)C1)c1ccnc(NC2CCC2)c1 [Compound 280, N-[(2S)-3-[5-chloro-6-(1H-pyrazol-4-ylmethoxy)-3,4-dihydro-1H-isoquinolin-2-yl]-2-hydroxy-propyl]-2-(cyclobutylamino)pyridine-4-carboxamide] | 50 to 500 nM | ≥ 5000 nM | 500 to 5000 nM |  | < 1000 nM | < 1000 nM | C* (an IC50 ratio of less than 3 fold between the IC50 in the HAP1 MTAP-intact cell line and the HAP1 MTAP-deleted cell line) |  | 
Cc1ncoc1COc1ccc2c(c1)CCN(C[C@@H](O)CNC(=O)c1ccnc(NC3CC4(CCC4)C3)c1)C2 [Compound 609, (S)—N-(2-hydroxy-3-(6-((4-methyloxazol-5-yl)methoxy)-3,4-dihydroisoquinolin-2(1H)-yl)propyl)-2-(spiro[3.3]heptan-2-ylamino)isonicotinamide] | 500 to 5000 nM |  | < 50 nM |  | 1000 to 10000 nM | < 1000 nM | B* (an IC50 ratio greater than or equal to 3 fold but lower than 10 fold between the IC50 in the HAP1 MTAP-intact cell line and the HAP1 MTAP-deleted cell line) | 500 to 5000 nM | A (a Ki ratio greater than or equal to 10 fold between the Ki in the presence of SAM and the Ki in the presence of MTA)
CC(C)C(=O)N1CCN(c2cc(C(=O)NC[C@H](O)CN3CCc4c(ccc(OCc5cnco5)c4Cl)C3)cc(NC3CCC3)n2)CC1 [Compound 466] | 50 to 500 nM |  | 50 to 500 nM |  | < 1000 nM | < 1000 nM | C* (an IC50 ratio of less than 3 fold between the IC50 in the HAP1 MTAP-intact cell line and the HAP1 MTAP-deleted cell line) | 500 to 5000 nM | A (a Ki ratio greater than or equal to 10 fold between the Ki in the presence of SAM and the Ki in the presence of MTA)
CC(=O)N1CC(Nc2cc(C(=O)NC[C@H](O)CN3CCc4c(ccc(OCc5cnco5)c4Cl)C3)ccn2)C1 [Compound 380, (S)-2-((1-acetylazetidin-3-yl)amino)-N-(3-(5-chloro-6-(oxazol-5-ylmethoxy)-3,4-dihydroisoquinolin-2(1H)-yl)-2-hydroxypropyl)isonicotinamide] | 50 to 500 nM | 500 to 5000 nM | 50 to 500 nM | A (a Ki ratio greater than or equal to 10 fold between the Ki in the presence of SAM and the Ki in the presence of MTA) | ≥ 10000 nM | ≥ 10000 nM | C* (an IC50 ratio of less than 3 fold between the IC50 in the HAP1 MTAP-intact cell line and the HAP1 MTAP-deleted cell line) |  | 
Cc1ncoc1COc1ccc2c(c1C)CCN(C[C@@H](O)CNC(=O)c1ccc3c(c1)CCN(C(=O)c1ccc(Br)cc1)C3)C2 [Compound 530] | 50 to 500 nM |  | 50 to 500 nM |  | ≥ 10000 nM | ≥ 10000 nM | C* (an IC50 ratio of less than 3 fold between the IC50 in the HAP1 MTAP-intact cell line and the HAP1 MTAP-deleted cell line) | ≥ 5000 nM | A (a Ki ratio greater than or equal to 10 fold between the Ki in the presence of SAM and the Ki in the presence of MTA)
CC(C)N1CCN(c2cc(C(=O)NC[C@H](O)CN3CCc4c(ccc(OCc5cnco5)c4Cl)C3)cc(NC3CCC3)n2)CC1 [Compound 566] | 50 to 500 nM |  | 50 to 500 nM |  | ≥ 10000 nM | ≥ 10000 nM | C* (an IC50 ratio of less than 3 fold between the IC50 in the HAP1 MTAP-intact cell line and the HAP1 MTAP-deleted cell line) | 500 to 5000 nM | A (a Ki ratio greater than or equal to 10 fold between the Ki in the presence of SAM and the Ki in the presence of MTA)
